From patent US20200237700A1, “METHODS OF REDUCING OR PREVENTING OXIDATION OF SMALL DENSE LDL OR MEMBRANE POLYUNSATURATED FATTY ACIDS” (Amarin Pharmaceuticals Ireland Limited, priority 2015, published 2020)
Values joined by “and” are separate entries in the source; they are usually repeats but may differ in a detail not shown here. Equal values may be shown once.

Experiments:
HUVECs exposed to oxLDL = test: NO and ONOO− release from HUVECs exposed to oxLDL, nanosensors (Example 8); type: cell-based, human
Method: Human umbilical vein endothelial cells (HUVECs) were isolated into primary cultures from female donors by Clonetics (San Diego, Calif.) and purchased as proliferating cells. All cell culture donors were healthy, with no pregnancy or prenatal complications. […] The confluent cells (4 to 5×10^5 cells/35 mm dish) were placed with minimum essential medium containing 3 mM L-arginine and 0.1 mM BH4 [(6R)-5,6,7,8-tetrahydrobiopterin]. Before experimental use, the cells (from second or third passage) were rinsed twice with Tyrode-HEPES buffer with 1.8 mM CaCl2.
The omega-3 fatty acids (O3FAs) cis-5,8,11,14,17-eicosapentaenoic acid (EPA) and docosahexaenoic acid (DHA) were purchased from Sigma-Aldrich (St. Louis, Mo.) and prepared initially at 11 mM in redistilled ethanol. Primary and secondary O3FA stock solutions were prepared and stored under argon at −20° C. […]
Oxidation was monitored by the use of measurements of TBARS. […] TBARS concentration was determined as malondialdehyde (MDA) equivalents with the use of an MDA standard curve. […]
The amperometric method (with a response time of 0.1 ms) provides a quantitative signal (current) that is directly proportional to changes (from basal levels) in NO or ONOO^− concentration. […] Basal NO or ONOO^− levels were measured by differential pulse voltammetry in separate experiments. […]

[1] = system: human LDL (unfractionated); test: Copper-induced unfractionated LDL oxidation, TBARS 1 hr (Example 7); type: biochemical; settings: 10 μM
Method: (§1) An experiment to study the antioxidant effect of EPA in LDL and small dense […] performed. […] Fenofibrate, gemfibrozil, and niacin were purchased from Sigma-Aldrich. […] Vitamin E was also incubated with sample aliquots as a positive control.

human sdLDL = test: Copper-induced sdLDL oxidation, TBARS (Example 7); type: biochemical
Method: as §1

[2] = Small angle x-ray diffraction of cholesterol-enriched POPC model membranes, cholesterol domain peak intensity (Example 9); type: physicochemical
Method: The fatty acid stock solutions were stored at −20° C. until use. […] Samples were shell-dried under nitrogen gas and placed under vacuum for 3 hours to remove residual solvent at room temperature. After desiccation, each sample was resuspended in saline buffer (0.5 mM HEPES, 154 mM NaCl, pH 7.3) to yield a final phospholipid concentration of 2.5 mg/mL. Lipid suspensions were then vortexed for 3 minutes at ambient temperature to form MLVs. Membrane lipid vesicles were oriented for x-ray diffraction analysis as described by others (e.g., Herbette et al., Biophys. […] Briefly, a 100 μL aliquot of each MLV preparation (containing 250 μg MLV) was transferred to a Lucite® sedimentation cell fitted with an aluminum foil substrate designed to collect MLVs into a single membrane pellet upon centrifugation. […] After centrifugal orientation, sample supernatants were aspirated and aluminum foil substrates, each supporting a single membrane pellet, were removed from the sedimentation cells. Sample pellets were dried for 5-10 minutes at ambient conditions, mounted onto curved glass supports, and placed in hermetically-sealed, brass or glass containers (for immediate analysis or temporary storage, respectively). All x-ray diffraction experiments were conducted at 20° C., 74% relative humidity. The latter was established by exposing membrane samples to saturated solutions of L-(+)-tartaric acid (K2C4H4O6.½H2O) for at least 1 hour prior to experimental analysis. Oriented membrane samples were aligned at grazing incidence with respect to a collimated, mono-chromatic CuKα x-ray beam (Kα1 and Kα2 unresolved; λ=1.54 Å) produced by a Rigaku Rotaflex RU-200, high-brilliance microfocus generator (Rigaku-MSC, The Woodlands, Tex.) as previously described (Mason et al., Biophys. J., vol. 55(4), pages 769-778 (1989)). The samples were initially subjected to x-ray diffraction analysis at least 12 hours after formation of the membrane pellets and retested for up to several days. […] Collimation of the x-ray beam was achieved using a single Franks mirror. Diffraction data were collected on a one-dimensional, position-sensitive electron detector (Hecus X-ray Systems, Graz, Austria) at a sample-to-detector distance of 150 mm from the sample site. […] Routines written in Origin 8.6 (OriginLab Corporation, Northampton, Mass.) were used to determine total peak area (associated with all diffraction peaks in a given pattern) against which the second-order cholesterol domain peak was normalized. […] Differences between groups were analyzed using the two-tailed, Student's t-test (for comparisons between only two groups) or ANOVA followed by Dunnett or Student-Newman-Keuls multiple comparisons post-hoc analysis (for comparisons between three or more groups). […]

[3] = system: sdLDL isolated from human subjects under hyperglycemia; test: Glucose-induced sdLDL oxidation, TBARS/MDA (Example 10); type: biochemical; settings: 10.0 μM; glucose 200 mg/dL
Method: Vitamin E (α-tocopherol) purchased from Sigma-Aldrich was prepared in ethanol at 1.0 mM (c=3.06×10^4 M^−1 cm^−1 at 294 nm) prior to experimental use. Test compounds were further diluted in ethanol or aqueous buffer as needed. Phosphate Buffered Saline (PBS) purchased from Sigma-Aldrich was prepared in double distilled water at 10 mM (138 mM NaCl, 2.7 mM KCl, pH 7.4). […] Lipid oxidation was measured by the colorimetric detection of malondialdehyde (MDA), a marker of oxidative stress. Data were presented as mean±SD for (n) separate samples or experiments. Differences between groups were analyzed using the unpaired, two-tailed Student's t-test (for comparisons between only two groups) or ANOVA followed by Student-Newman-Keuls multiple comparisons post hoc analysis (for comparisons between three or more groups).

[4] = EPA to phospholipid 1:30 (Table 3)

| SMILES | increased NO release (HUVECs exposed to oxLDL; ECs exposed to oxLDL, as compared to vehicle) [%] | inhibited TBARS formation compared to vehicle-treated control ([1]; unfractionated LDL) [%] | sdLDL oxidation after 4 hours as compared to vehicle or DHA (human sdLDL; 10.0 μM, 4 hours) | inhibition of sdLDL oxidation vs vehicle (human sdLDL; each agent at 1.0 μM, 1 hr) [%] | inhibited TBARS formation / sdLDL oxidation vs vehicle (human sdLDL; each agent at 10 μM, 1 hr) | % Change (vs. Control) [2, 4] [%] | Relative Cholesterol Domain Peak Intensity [2, 4] | inhibited sdLDL oxidation as compared to vehicle controls [3] [%] | sdLDL oxidation (formation of MDA) [3] [µM] | NO/ONOO− Ratio (HUVECs exposed to oxLDL; oxLDL 20 min, then treatment 1 hour, EPA 10 μM, ATM 1.0 μM) | effect on unfractionated LDL oxidation as compared to vehicle-treated controls [1] | effect on sdLDL oxidation as compared to vehicle-treated controls (human sdLDL; 10 μM, 1 hour) | effect on cholesterol domains / domain size ([2]; drug-to-phospholipid mole ratio 1:30) | glucose-induced sdLDL oxidation [3] |
| --- | --- | --- | --- | --- | --- | --- | --- | --- | --- | --- | --- | --- | --- | --- |
| CC/C=C\C/C=C\C/C=C\C/C=C\C/C=C\CCCC(=O)O [EPA, cis-5,8,11,14,17-eicosapentaenoic acid] | 45 | > 90 | significantly inhibited sdLDL oxidation | 19±8 | 93±2% and 92±8% | −65.5 ± 17.1 | 14.6 ± 5.0 | 94 | 0.2 ± 0.1 | – | – | – | – | – |
| O=C(O)c1cccnc1 [niacin, nicotinic acid] | – | – | – | – | – | – | – | – | – | 2.00 ± 0.52 | no significant effect | no significant effect | no significant changes in cholesterol domain size | did not inhibit glucose-induced sdLDL oxidation |
